Measurements from US11884661B2, “3-substituted propionic acids as αV integrin inhibitors” (BRISTOL-MYERS SQUIBB COMPANY, priority 2016, dated 2024).

Target: T1, human αVβ6 (Homo sapiens, UniProt P06756+P18564)
T1 construct: purchased R & D systems 3817-AV
Assay: human αVβ6 HTRF binding assay
Settings: recombinant human αVβ6 integrin, FITC-conjugated fibronectin
Outline: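 Biotinylated recombinant αVβ6 (1.25 nM final) incubated with FITC-fibronectin (5 nM) 1 h at RT, then streptavidin-terbium (0.625 nM) added and incubated overnight at RT in the dark before HTRF read. Buffer: 20 mM Tris pH 7.4, 1 mM MgCl2, 1 mM MnCl2, 0.01% Tween 20, 0.01% BSA.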

T1 sequence (P06756 31-992 limits assumed): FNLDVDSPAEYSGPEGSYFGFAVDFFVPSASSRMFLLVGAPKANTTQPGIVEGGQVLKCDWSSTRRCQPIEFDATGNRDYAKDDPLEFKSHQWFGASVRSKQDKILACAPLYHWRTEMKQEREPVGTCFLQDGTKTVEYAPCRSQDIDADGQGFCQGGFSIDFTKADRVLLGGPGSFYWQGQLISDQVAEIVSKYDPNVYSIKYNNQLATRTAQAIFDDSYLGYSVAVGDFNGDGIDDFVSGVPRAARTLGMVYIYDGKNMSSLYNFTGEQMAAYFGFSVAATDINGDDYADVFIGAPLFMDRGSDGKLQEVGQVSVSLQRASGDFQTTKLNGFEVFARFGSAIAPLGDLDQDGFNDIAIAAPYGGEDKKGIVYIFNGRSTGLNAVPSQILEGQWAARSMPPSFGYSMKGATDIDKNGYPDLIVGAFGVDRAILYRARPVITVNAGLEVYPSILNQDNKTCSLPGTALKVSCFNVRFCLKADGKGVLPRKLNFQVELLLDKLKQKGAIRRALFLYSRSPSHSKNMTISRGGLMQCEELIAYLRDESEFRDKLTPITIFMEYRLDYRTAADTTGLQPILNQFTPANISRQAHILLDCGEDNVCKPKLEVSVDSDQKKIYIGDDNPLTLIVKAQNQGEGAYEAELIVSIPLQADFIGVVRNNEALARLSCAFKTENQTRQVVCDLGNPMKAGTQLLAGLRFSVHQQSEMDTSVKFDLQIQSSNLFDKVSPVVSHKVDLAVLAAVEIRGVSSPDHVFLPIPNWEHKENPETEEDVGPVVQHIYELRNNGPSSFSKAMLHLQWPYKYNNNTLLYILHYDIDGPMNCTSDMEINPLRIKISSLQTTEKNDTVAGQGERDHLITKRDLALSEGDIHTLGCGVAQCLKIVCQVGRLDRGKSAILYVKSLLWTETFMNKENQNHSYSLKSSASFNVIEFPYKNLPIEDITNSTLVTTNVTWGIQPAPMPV
T1 sequence (P18564 22-707 limits assumed): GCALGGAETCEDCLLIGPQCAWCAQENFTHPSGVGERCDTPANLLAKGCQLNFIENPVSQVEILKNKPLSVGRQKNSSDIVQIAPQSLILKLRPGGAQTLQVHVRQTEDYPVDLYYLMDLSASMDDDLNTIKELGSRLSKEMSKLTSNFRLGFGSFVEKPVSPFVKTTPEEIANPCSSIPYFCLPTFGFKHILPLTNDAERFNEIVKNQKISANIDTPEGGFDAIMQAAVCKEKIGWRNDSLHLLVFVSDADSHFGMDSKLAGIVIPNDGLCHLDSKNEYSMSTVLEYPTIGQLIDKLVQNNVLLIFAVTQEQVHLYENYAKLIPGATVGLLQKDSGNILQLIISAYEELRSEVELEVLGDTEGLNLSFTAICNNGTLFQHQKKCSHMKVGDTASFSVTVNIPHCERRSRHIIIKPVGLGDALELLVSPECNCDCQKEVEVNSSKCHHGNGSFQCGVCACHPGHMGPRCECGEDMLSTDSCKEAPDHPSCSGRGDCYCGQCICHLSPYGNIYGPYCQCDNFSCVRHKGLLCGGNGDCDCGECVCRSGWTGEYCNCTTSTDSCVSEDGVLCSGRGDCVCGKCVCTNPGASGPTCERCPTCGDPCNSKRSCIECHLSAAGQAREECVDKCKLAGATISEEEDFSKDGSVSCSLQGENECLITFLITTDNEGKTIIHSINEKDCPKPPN

Structure (SMILES)	IC50 [nM]
COc1ccc(C(CC(=O)O)n2ccc(CCCc3ccc4c(n3)NCCC4)n2)cn1 (single isomer, unassigned) [Example 4, 3-(6-Methoxypyridin-3-yl)-3-(3-(3-(5,6,7,8-tetrahydro-1,8-naphthyridin-2-yl)propyl)-1H-pyrazol-1-yl)propanoic acid]	210
COc1cc(C(CC(=O)O)n2nccc2CCCc2ccc3c(n2)NCCC3)ccn1 (racemic) [Example 73, (±)-3-(2-methoxypyridin-4-yl)-3-{5-[3-(5,6,7,8-tetrahydro-1,8-naphthyridin-2-yl)propyl]-1H-pyrazol-1-yl}propanoic acid]	25
CN(C)C(=O)c1ccc(C(CC(=O)O)c2nc(CCCCc3ccc4c(n3)NCCC4)cs2)cc1 (single isomer, unassigned) [Example 127, 3-(4-(dimethylcarbamoyl)phenyl)-3-(4-(4-(5,6,7,8-tetrahydro-1,8-naphthyridin-2-yl)butyl)thiazol-2-yl)propanoic acid]	60
O=C(O)CC(c1cnc(N2CCC2)nc1)n1nccc1CCCc1ccc2c(n1)NCCC2 (racemic) [Example 53, (±)-3-(2-(Azetidin-1-yl)pyrimidin-5-yl)-3-(5-(3-(5,6,7,8-tetrahydro-1,8-naphthyridin-2-yl)propyl)-1H-pyrazol-1-yl)propanoic acid]	140
COc1ccc([C@@H](CC(=O)O)c2cnn(CCCc3ccc4c(n3)NCCC4)c2)cn1 [Example 9, (R)-3-(6-Methoxypyridin-3-yl)-3-(1-(3-(5,6,7,8-tetrahydro-1,8-naphthyridin-2-yl)propyl)-1H-pyrazol-4-yl)propanoic acid]	213
O=C(O)CC(c1cnc(N2CCC2)nc1)n1ccc(CCCc2ccc3c(n2)NCCC3)n1 (racemic) [Example 50, (±)-3-(2-(Azetidin-1-yl)pyrimidin-5-yl)-3-(3-(3-(5,6,7,8-tetrahydro-1,8-naphthyridin-2-yl)propyl)-1H-pyrazol-1-yl)propanoic acid]	6.4
CCOc1ncc([C@@H](CC(=O)O)n2ccc(CCCc3ccc4c(n3)NCCC4)n2)cn1 [Example 81, (R)-3-(2-ethoxypyrimidin-5-yl)-3-(3-(3-(5,6,7,8-tetrahydro-1,8-naphthyridin-2-yl)propyl)-1H-pyrazol-1-yl)propanoic acid]	480
COc1ccc(C(CC(=O)O)n2ccc(CCCc3ccc4c(n3)NCCCC4)n2)cn1 (single isomer, unassigned) [Example 102, 3-(6-methoxypyridin-3-yl)-3-(3-(3-(6,7,8,9-tetrahydro-5H-pyrido[2,3-b]azepin-2-yl)propyl)-1H-pyrazol-1-yl)propanoic acid]	150
CN(C)c1ccc(C(CC(=O)O)c2nc(CCCc3ccc4c(n3)NCCC4)cs2)cn1 (single isomer, unassigned) [Example 134, 3-(6-(dimethylamino)pyridin-3-yl)-3-(4-(3-(5,6,7,8-tetrahydro-1,8-naphthyridin-2-yl)propyl)thiazol-2-yl)propanoic acid]	1.8
COc1ccc(C(CC(=O)O)n2cc(CCCCc3ccc4c(n3)NCCC4)cn2)cn1 (racemic) [Example 61, (±)-3-(6-Methoxypyridin-3-yl)-3-(4-(4-(5,6,7,8-tetrahydro-1,8-naphthyridin-2-yl)butyl)-1H-pyrazol-1-yl)propanoic acid]	56
O=C(O)C[C@@H](c1ccc(OCc2ccccc2)nc1)n1ccc(CCCc2ccc3c(n2)NCCC3)n1 [Example 110, (S)-3-(6-(benzyloxy)pyridin-3-yl)-3-(3-(3-(5,6,7,8-tetrahydro-1,8-naphthyridin-2-yl)propyl)-1H-pyrazol-1-yl)propanoic acid]	9.3
CN(C)C(=O)c1ccc(C(CC(=O)O)c2nc(CCCc3ccc4c(n3)NCCC4)cs2)cc1 (single isomer, unassigned) [Example 138, 3-(4-(dimethylcarbamoyl)phenyl)-3-(4-(3-(5,6,7,8-tetrahydro-1,8-naphthyridin-2-yl)propyl)thiazol-2-yl)propanoic acid]	4
COc1ccc(C(CC(=O)O)c2cc(CCCc3ccc4c(n3)NCCC4)c[nH]2)cc1F (racemic) [Example 10, (±)-3-(3-Fluoro-4-methoxyphenyl)-3-(4-(3-(5,6,7,8-tetrahydro-1,8-naphthyridin-2-yl)propyl)-1H-pyrrol-2-yl)propanoic acid]	136
COc1ccc(C(CC(=O)O)n2cc(CCCc3ccc4c(n3)NCCC4)cn2)cn1 (racemic) [Example 62, (±)-3-(6-Methoxypyridin-3-yl)-3-(4-(3-(5,6,7,8-tetrahydro-1,8-naphthyridin-2-yl)propyl)-1H-pyrazol-1-yl)propanoic acid]	170
Cc1ncc(C(CC(=O)O)n2ccc(CCCc3ccc4c(n3)NCCCC4)n2)cn1 (stereo not drawn) [Example 98, 3-(2-methylpyrimidin-5-yl)-3-(3-(3-(6,7,8,9-tetrahydro-5H-pyrido[2,3-b]azepin-2-yl)propyl)-1H-pyrazol-1-yl)propanoic acid]	595
Cc1cncc(C(CC(=O)O)n2ccc(CCCc3ccc4c(n3)NCCC4)n2)c1 (single isomer, unassigned) [Example 69, 3-(5-methylpyridin-3-yl)-3-{3-[3-(5,6,7,8-tetrahydro-1,8-naphthyridin-2-yl)propyl]-1H-pyrazol-1-yl}propanoic acid]	15
CCOc1ncc(C(CC(=O)O)c2nc(CCCCc3ccc4c(n3)NCCC4)cs2)cn1 (single isomer, unassigned) [Example 130, 3-(2-ethoxypyrimidin-5-yl)-3-(4-(4-(5,6,7,8-tetrahydro-1,8-naphthyridin-2-yl)butyl)thiazol-2-yl)propanoic acid]	2.9
Cc1ncc(C(CC(=O)O)c2nc(CCCc3ccc4c(n3)NCCC4)cs2)cn1 (single isomer, unassigned) [Example 147, 3-(2-methylpyrimidin-5-yl)-3-(4-(3-(5,6,7,8-tetrahydro-1,8-naphthyridin-2-yl)propyl)thiazol-2-yl)propanoic acid]	1.9
COc1ccc(C(CC(=O)O)c2nc(CCCCc3ccc4c(n3)NCCC4)cs2)cc1OC (single isomer, unassigned) [Example 123, 3-(3,4-dimethoxyphenyl)-3-(4-(4-(5,6,7,8-tetrahydro-1,8-naphthyridin-2-yl)butyl)thiazol-2-yl)propanoic acid]	180
COc1ccc(C(CC(=O)O)c2cc(CCCc3ccc4c(n3)NCCC4)[nH]n2)cc1F (stereo not drawn) [Example 116, 3-(3-Fluoro-4-methoxyphenyl)-3-(5-(3-(5,6,7,8-tetrahydro-1,8-naphthyridin-2-yl)propyl)-1H-pyrazol-3-yl)propanoic acid]	47
CCOc1ncc([C@H](CC(=O)O)n2ccc(CCCc3ccc4c(n3)NCCC4)n2)cn1 [Example 56, (S)-3-(2-Ethoxypyrimidin-5-yl)-3-(3-(3-(5,6,7,8-tetrahydro-1,8-naphthyridin-2-yl)propyl)-1H-pyrazol-1-yl)propanoic acid]	7.1
COc1ccc(C(CC(=O)O)c2nc(CCCc3ccc4c(n3)NCCC4)cs2)cn1 (single isomer, unassigned) [Example 16, 3-(6-Methoxypyridin-3-yl)-3-(4-(3-(5,6,7,8-tetrahydro-1,8-naphthyridin-2-yl)propyl)thiazol-2-yl)propanoic acid]	36
COc1ccc(C(CC(=O)O)n2ccc(CCCc3ccc4c(n3)NCCC4)n2)nn1 (racemic) [Example 57, (±)-3-(6-Methoxypyridazin-3-yl)-3-(3-(3-(5,6,7,8-tetrahydro-1,8-naphthyridin-2-yl)propyl)-1H-pyrazol-1-yl)propanoic acid]	51
COc1ncc(C(CC(=O)O)c2nc(CCCCc3ccc4c(n3)NCCC4)cs2)cn1 (single isomer, unassigned) [Example 144, 3-(2-Methoxypyrimidin-5-yl)-3-(4-(4-(5,6,7,8-tetrahydro-1,8-naphthyridin-2-yl)butyl)thiazol-2-yl)propanoic acid]	7
COc1ccc(C(CC(=O)O)c2ncc(CCCc3ccc4c(n3)NCCC4)s2)cc1F (single isomer, unassigned) [Example 42, 3-(3-Fluoro-4-methoxyphenyl)-3-(5-(3-(5,6,7,8-tetrahydro-1,8-naphthyridin-2-yl)propyl)thiazol-2-yl)propanoic acid]	28
COc1ccc(C(CC(=O)O)n2nccc2CCCc2ccc3c(n2)NCCC3)cc1F (racemic) [Example 71, (±)-3-(3-fluoro-4-methoxyphenyl)-3-{5-[3-(5,6,7,8-tetrahydro-1,8-naphthyridin-2-yl)propyl]-1H-pyrazol-1-yl}propanoic acid]	15
COc1ncc(C(CC(=O)O)n2ccc(CCCc3ccc4c(n3)NCCCC4)n2)cn1 (single isomer, unassigned) [Example 104, 3-(2-methoxypyrimidin-5-yl)-3-(3-(3-(6,7,8,9-tetrahydro-5H-pyrido[2,3-b]azepin-2-yl)propyl)-1H-pyrazol-1-yl)propanoic acid]	10
Cc1cncc(C(CC(=O)O)c2nc(CCCc3ccc4c(n3)NCCC4)cs2)c1 (single isomer, unassigned) [Example 151, 3-(5-methylpyridin-3-yl)-3-(4-(3-(5,6,7,8-tetrahydro-1,8-naphthyridin-2-yl)propyl)thiazol-2-yl)propanoic acid]	2.6
Cc1ncc([C@H](CC(=O)O)n2ccc(CCC[C@H]3CCc4cccnc4N3)n2)cn1 [Example 86, (S)-3-(2-methylpyrimidin-5-yl)-3-(3-(3-((S)-1,2,3,4-tetrahydro-1,8-naphthyridin-2-yl)propyl)-1H-pyrazol-1-yl)propanoic acid]	270
O=C(O)C[C@@H](c1ccc(O)nc1)n1ccc(CCCc2ccc3c(n2)NCCC3)n1 [Example 12, (S)-3-(6-Hydroxypyridin-3-yl)-3-(3-(3-(5,6,7,8-tetrahydro-1,8-naphthyridin-2-yl)propyl)-1H-pyrazol-1-yl)propanoic acid]	31
